# From a melting point compilation (Tetko et al.)
row,Structure (SMILES),melting point
1,CCCCCCCCc1ccc(O)cc1,45 °C
2,OCCN(CCO)C(CO)(CO)CO,104 °C
3,CC(Oc1ccc(Cl)cc1Cl)C(=O)O (configuration not stated),122 °C
4,c1ccc(C2=NN(c3ccccc3)C2)cc1,138 °C
5,O=C(O)CNC(=O)OCc1ccccc1,121 °C
6,CC1(c2ccccc2)CCOCO1 (configuration not stated),37.5 °C
7,C[Si](C)(C)CCS(=O)(=O)c1ccccc1,50 to 53 °C
8,CN(C(=O)CN(CCO)CC(=O)N(C)C(C)(C)Cc1ccccc1)C(C)(C)Cc1ccccc1,104 °C
9,N#CC1CCCC1,-76 °C
10,CC(C)(C(=O)O)C(C)(C)C(=O)O,200 °C
11,O=c1[nH]nc2ccccn12,234 °C
12,CC(C)(C)OC(=O)C(C)(C)Sc1nnc(N)s1,175 to 176 °C
13,O=C(Cl)CCCCl,-47 °C
14,NS(=O)(=O)c1ccc(SCCCCCO)cc1,103 °C
15,CCCCSP(SCCCC)SCCCC,100 °C
16,NC(=O)C(F)(F)Cl,82 °C
17,CC(CC(C)C(=O)O)C(=O)O (configuration not stated),104 to 108 °C
18,O=C(Oc1ccccn1)Oc1ccccn1,90 °C
19,COC(=O)c1ccc(C2(C)C=CC=CC=C2)cc1,61 °C
20,c1ccc2c(c1)NC1(CCCC1)N2,190 °C
21,CN(C)CCO,-59 °C
22,COC(=O)CCC(C)C1CCC2C3C(OC(C)=O)CC4CC(=O)CCC4(C)C3CC(=O)C12C (configuration not stated),165 to 167 °C
23,O=C(C=Cc1ccccc1)c1ccc(F)cc1,79 to 80 °C

row,Structure (SMILES),melting point
1,C[C@@]12CCC[C@@H]1C1=C(CC2)[C@@]2(C)CCC(=O)CC2CC1 (some centres not stated),77 to 78 °C
2,CC(=O)NC(C)C(=O)O (racemic),137 °C
3,CC(O)C1CCC2C3CCC4CC(O)CCC4(C)C3CCC12C (configuration not stated),245 °C
4,CN1C2CC3CC1C(O3)C2O (configuration not stated),108 °C
5,C[C@@H]1C(=O)[C@]23C[C@H]1CC[C@H]2[C@@]1(CCC[C@@]2(C)COC(=O)[C@H]21)COC3=O,297 °C
6,Cc1ccc(C(=O)OC2CC(C#N)OC2OC(=O)c2ccc(C)cc2)cc1 (configuration not stated),110 to 111 °C
7,COC1=C/C(=N\O)C2(C)CCC1C2(C)C (configuration not stated),185 °C
8,CC(=O)C(=NNc1ccc(C(=O)O)cc1)C(C)=O,215 °C
9,O=P(OCC(Br)CBr)(OCC(Br)CBr)OCC(Br)CBr (configuration not stated),5.5 °C
10,COC1C=CC23c4cc5c(cc4COC2(O)CN(C)C3C1)OCO5 (configuration not stated),210 °C
11,CC12C=C(C=O)C(=O)C=C1CCC1C2C(O)CC2(C)C1CCC2(C)O (configuration not stated),210 °C
12,CNC(=O)C(F)(F)F,51 °C
13,CCOC(=O)C1CN(Cc2ccco2)C(=O)C1=O (configuration not stated),127 to 129 °C
14,Nc1nonc1N,178 to 183 °C
15,O=C1NC2NC(=O)NC2N1 (configuration not stated),300 °C
16,CCOCCOC(=O)C=Cc1ccc(OC)cc1,-25 °C
17,O=Cc1ccccc1OCCN1CCOCC1,43 to 45 °C
18,Cc1ccsc1,-69 °C
19,CC(C)(C(=O)O)c1ccc(Cl)cc1,127 °C
20,CC(C)OC(=O)CCCCC(=O)OC(C)C,-1.1 °C
21,O=C(Cl)OCc1ccc([N+](=O)[O-])cc1,33 °C
22,Oc1ccccc1N1CCCC1,111 °C
23,O=C(O)CN(CCO)CC(=O)O,178 °C

row,Structure (SMILES),melting point
1,CN(C)C(=S)NN,149 to 153 °C
2,CC(C)(C)OC(=O)N[C@@H](C=O)Cc1ccccc1,85 to 89 °C
3,C=CCNC(=S)NN,93 to 96 °C
4,CC1(C)Nc2cccc3c(N=Nc4ccc(N=Nc5ccccc5)c5ccccc45)ccc(c23)N1,120 to 124 °C
5,C1CCC(P(C2CCCCC2)C2CCCCC2)CC1,77 to 83 °C
6,O=C(CC(=O)C(F)(F)F)c1ccco1,20.5 °C
7,CCCCCCCCCCCCCCCCCC(=O)OCC(COC(=O)CCCCCCCCCCCCCCCCC)OC(=O)CCCCCCCCCCCCCCCCC,55 °C
8,CC[C@@H]1CCC[C@H]1CC (relative stereo),-95 °C
9,NC(CS(=O)(=O)c1ccc(Cl)cc1)=NO,202 to 205 °C
10,CCCCCC=CCC=CCC=CCC=CCCCC(=O)O,-49.5 °C
11,CCOC(=O)C1C(c2ccccc2O)C(C(=O)OCC)C(O)(C(F)(F)F)NC1(O)C(F)(F)F (configuration not stated),91 °C
12,CC1CCC(C(C)C)C(OC(=O)C(Cc2ccccc2)c2ccccc2)C1 (configuration not stated),101 °C
13,O=[N+]([O-])c1ccc(C(O)C(O)CO)cc1 (configuration not stated),93 to 97 °C
14,O=NN(CCCl)C(=O)NC1CCCCC1,90 °C
15,O=C(Nn1cnnc1)C(F)(F)C(F)(F)C(F)(F)C(F)(F)C(F)(F)C(F)(F)C(F)(F)C(F)(F)F,151 °C
16,Cc1ccc2c(c1C)CCC1C2CCC2CC(O)CCC21C (configuration not stated),188 °C
17,CCCCCCCCCCCCCCCCCC(=O)OCCC,28.9 °C
18,NCCCCCCNCCCCCCN,33 °C
19,FC(F)OC(F)F,-123 °C
20,N#CCC(N)=S,113 to 119 °C
21,O=CC[C@@H](O)[C@H](O)CO,91 °C

# Now from value to compound:
row,melting point,Structure (SMILES)
1,72 to 74 °C,Cc1nn(C)c(C)c1I
2,106 to 111 °C,N#Cc1ccc(N)c(Br)c1
3,32 °C,Nc1c(Cl)cc(OC(F)(F)F)cc1Cl
4,110 to 113 °C,NC(=S)c1cccc(Cl)c1
5,176 °C,COc1ccc2c(c1)CC(c1ccc([N+](=O)[O-])cc1)OC2=O (configuration not stated)
6,237 to 238 °C,O=C(O)c1cnc2n(c1=O)CCS2
7,230 °C,Cc1nc(-c2ccccc2)sc1CN
8,33 °C,Fc1cc(Br)c(Br)cc1F
9,108 to 110 °C,O=C(O)CCc1cc(Br)c(O)c(Br)c1
10,259 °C,C/C(=N\Nc1ccc([N+](=O)[O-])cc1[N+](=O)[O-])c1ccccc1O
11,56 °C,CC(=O)C1CCc2ccccc2C1=O (configuration not stated)
12,259 to 260 °C,O=C1c2ccccc2C(=O)N1c1cn[nH]c1
13,218 °C,O=C1C(=C2c3ccccc3C(=O)C2c2cc(Cl)c([N+](=O)[O-])cc2[N+](=O)[O-])C(=O)c2ccccc21 (configuration not stated)
14,238 °C,O=C(O)c1ccccc1C(c1ccc(O)cc1)c1ccc(O)cc1
15,223 to 225 °C,Cc1nc(-c2cccc(C(=O)O)c2)no1
16,226 °C,CCCc1ccc(-c2ccc(C(=O)O)cc2)cc1
17,181 °C,O=[N+]([O-])c1ccc(CCc2ccc([N+](=O)[O-])cc2)cc1
18,282 °C,Cc1ccc(NC=C2C(=O)NN=C2c2c(O)c3ccccc3n(C)c2=O)cc1
19,87 to 88 °C,CCOC(=O)c1[nH]c(C)c(CC)c1C
20,126 to 128 °C,CC(=O)Nc1cc(Cl)c(Cl)cc1[N+](=O)[O-]
21,45 to 47 °C,Nc1cccc(COc2ccccc2)c1
22,235 to 237 °C,O=C(Nc1ccccc1Br)Nc1ccccc1Br

row,melting point,Structure (SMILES)
1,248 °C,CSc1nc2cc(NCc3ccc(Cl)cc3)ccc2[nH]1
2,60 °C,CC(=O)Oc1cc(-c2ccccc2)cc2ccccc12
3,15 °C,CCc1ccc(O)c(OC)c1
4,174 °C,CCOc1ccc(-c2ccc(OCC)cc2)cc1
5,14 °C,Nc1cc(F)ccc1F
6,94 °C,CC1(O)Cc2cccc(Cl)c21 (configuration not stated)
7,100 °C,Fc1ncccc1-c1ccc(Cl)cn1
8,38 °C,Nc1c(Br)cc(C(F)(F)F)cc1Br
9,218 to 222 °C,Cc1nccc(O)c1OCc1ccc(Cl)cc1Cl
10,58 °C,COC(=O)c1cccc(C=O)c1
11,209 °C,N#CC1=C(N)N2C(=C(C#N)C1c1ccc(Cl)cc1)Sc1ccccc12 (configuration not stated)
12,86 to 88 °C,NNC(=O)c1cc(OCC(F)(F)F)ccc1OCC(F)(F)F
13,214 to 216 °C,COc1cc(C(=O)O)cc(Cl)n1
14,140 °C,O=C(O)C[C@H](NC(=O)OCC1c2ccccc2-c2ccccc21)c1cccc([N+](=O)[O-])c1
15,84 °C,O=Cc1cc(F)ccc1O
16,157 °C,O=C(O)COc1ccc(I)cc1
17,50 to 52 °C,CCOC(=O)c1cccc(-c2nccs2)c1
18,30 °C,Clc1ncc(Br)c(Cl)n1
19,35 °C,CC(=O)c1cc(F)c(Cl)cc1Cl
20,310 to 320 °C,NC(=O)c1sc2nnccc2c1N
21,45 to 48 °C,CCCc1c(NCC)ccc(C(C)=O)c1O
22,114 °C,O=C(Cc1ccccc1)c1ccc2c3c(cccc13)CC2

row,melting point,Structure (SMILES)
1,76 to 77 °C,Cn1nc(-c2cccs2)cc1C=O
2,131 °C,O=c1c(=O)c2ccccc12
3,141 to 142 °C,CCOC(=O)c1cc2c(oc1=O)-c1ccc(OC)cc1CC2
4,259 to 262 °C,O=C(O)c1n[nH]c2ccccc12
5,160 °C,Brc1cc(Br)c(Br)c(Br)c1Br
6,43 °C,Cc1ccc(Br)nc1
7,223 °C,c1ccc(-c2nc3ccccc3[nH]2)nc1
8,119 °C,CN1CCN(C2=Nc3ccccc3Sc3ccc(Cl)cc32)CC1
9,81 to 82 °C,Nc1ccc2c(c1)OCCCO2
10,200 °C,Cc1nc(-c2ccc(C(=O)O)s2)cs1
11,156 °C,CC1(C)OC(=O)C(=NNc2ccc(Cl)cc2)C(=O)O1
12,130 to 132 °C,N#Cc1cc(Cl)ccc1Cl
13,193 to 195 °C,CSc1nc(=O)n(CCO)c2c1CCC2
14,173 to 175 °C,CC(=O)CN1C(=O)N2CCc3ccccc3C2(c2ccc(Cl)cc2)C1=O (configuration not stated)
15,255 °C,NSCc1cc2ccccc2oc1=O
16,212 °C,O=[N+]([O-])c1cc([N+](=O)[O-])c(C(Br)C(Br)c2ccccc2)cc1/C=C\c1ccccc1 (configuration not stated)
17,316 °C,O=c1[nH]cc(C(F)(F)F)c(=O)[nH]1
18,177 to 179 °C,O=C(O)c1cccc(-c2ccsc2)c1
19,59.5 °C,c1ccc(Cc2cccc3ccccc23)cc1
20,240 to 248 °C,O=C1OC(O)c2c(Cl)c(Cl)c(Cl)c(Cl)c21 (configuration not stated)
21,154 to 155 °C,COc1cccc2cc(C(=O)c3cc4ccccc4o3)oc12
